US20210301038A1, “POLYSIALIC ACID AND DERIVATIVES THEREOF, PHARMACEUTICAL COMPOSITION AND METHOD OF PRODUCING POLYSIALIC ACID” (Medizinische Hochschule Hannover (MHH), priority 2018, published 2021)

Key:
5×FAD mice = test: Recency test (increased difficulty) in 5×FAD mice; type: in vivo, mouse; conditions: intranasal, 0.5 mg/kg DP12 or equimolar, 2 hours before test; 90 min intervals
Procedure: The recency test comprised of two encoding phases followed by a retrieval phase (modified from Nelson et al., 2011). The interval between the encoding phases was 1 h, and the interval between the second encoding phase and the retrieval phase was 10 min, except for experiments in 5×FAD mice when both intervals were 90 min to make the task more difficult. In the first encoding phase, animals were placed into the open field arena and allowed to explore a pair of identical objects for 10 min. Then, a different pair of identical objects was presented in the second encoding phase (10 min total exploration time). During the retrieval phase, two different objects, one object from each encoding phase, were placed into the apparatus and animals were given 10 min to explore them.
Animals were randomly assigned to treatment groups using a randomized block design to counterbalance differences in age. The time of the day when tests were performed for different animals was also counterbalanced between treatment groups using a randomized block design. All measurements and statistical analyses were performed performed blindly, i.e. the tubes containing drugs/vehicle were coded. Exploration was defined as the animal approaching the object at a distance of less than 2 cm. The animal climbing onto the object with both hind- and forelimbs was not considered as exploration. In the same trial, objects were counterbalanced, and between trials, the placements of novel and familiar objects were changed. The objects used in the novel object recognition test were not employed in the recency test. Novelty detection was evaluated by calculating the discrimination ratio as follows: [novel object time−familiar object time]/[novel object time+familiar object time]×100%. In the recency test, the discrimination ratio was calculated as follows: [least recent object time−most recent object time]/[least object time+most recent object time]×100%. Unreliable measurements (about 10%), when animals spent in total ≤10 s near to both objects, were excluded from analysis.
As the recency test was consistently used for analysis of DP12 effects in other mouse models, it was further investigated whether 13- to 14-month-old 5×FAD mice are impaired in this form of memory. In this series of experiments, the intervals between each session during recency test were increased to 90 min to increase the difficulty to recall the temporal order of the two objects shown in the arena (FIG. 12(A)). […] To verify whether DP12 or avDP10-9OAc may improve cognitive function in the 5×FAD model of AD, these compounds or a vehicle (H2O) were intranasally delivered in the same cohort of 5×FAD mice before multiple recency test sessions (separated by 4 day-interval). The numbers of mice in each treatment group during one session were counterbalanced and each mouse received in a random order both drugs and the vehicle. […] In contrast, vehicle-treated 5×FAD mice explored the two objects equally (FIG. 12(C)).

[1] = test system: dissociated hippocampal cultures (primary neural cells); test: MTT assay of neural cell viability; type: cell-based, mouse; conditions: 30 to 1000 nM, 48 hours, from 10th day in vitro; DP10 effect at 30, 100 and 300 nM
Procedure: Primary hippocampal cells were dissociated from embryonic mice on embryonic day 18. To prepare the primary neural cultures, pregnant C57/BL6J mice were sacrificed by cervical dislocation. Embryos were decapitated, and the hippocampi isolated from brains under sterile conditions and dissected. Enzymatic digestion by 0.25% trypsin/EDTA solution was followed by separation of the cells in serum-containing medium via trituration (10 passes, 1 ml pipette). The primary cells were seeded onto 96-well plates coated with 100 μg/ml poly-lysine and 20 μg/ml laminin. The plating density was 20,000 cells per well. First, 200 μl Dulbecco's modified Eagle's medium (DMEM) was applied per well (supplemented with 1% penicillin-streptomycin and 1% L-glutamine and 2% B27). After incubation for 2 h at 37° C./5% CO2, the medium was exchanged with the pre-warmed Neurobasal medium including 1% penicillin-streptomycin, 1% L-glutamine, and 2% B27. The cells—predominantly neurons and astrocytes—were incubated at 37° C. in 5% CO2 humidified atmosphere for 10 days before administration of reagents.
The assay was performed as described elsewhere with minor modifications (Khalid et al., 2018). Primary neural cells (see above) grown in a 96-well plate were exposed to drugs/vehicles for 48 h at 37° C./5% CO2. After aspiration of culture media, a washing was done with 100 μl phosphate buffered saline (PBS, pH=7.2). Then, PBS was completely removed, and 100 μl phenol red-free pre-warmed Neurobasal media and 50 μl MTT solution (3-(4,5-dimethylthiazol-2-yl)-2,5-diphenyltetrazolium bromide, 5 mg/ml; dissolved in PBS) were added to each well and plates were incubated for 4 h in an incubator. […] DMSO destroyed the cells and released the formazan, which was detected by optical density value at 560 nm, measured using a plate reader. Optical density values for wells containing cells were corrected by subtracting values measured in cell-free wells prepared and treated in the same way as wells containing control cells.

[2] = test system: NMDAR-EPSCs (GluN1/GluN2B receptors); test: Evoked NMDAR-EPSCs, whole-cell patch-clamp of layer V pyramidal neurons in sham- or endoNF-treated mPFC slices; type: cell-based, mouse; conditions: endoNF-treated mPFC slices; DP1 10 μg/ml; DP5 1 μg/ml and 10 μg/ml
Text: Each mouse was quickly sacrificed by cervical dislocation. After decapitation, the brain was rapidly removed from the skull and placed in ice-cold artificial cerebrospinal fluid (aCSF) equilibrated with 95% O2/5% CO2, which was composed of the following (in mM): 250 sucrose, 24 NaHCO3, 25 glucose, 2.5 KCl, 1.25 NaH2PO4, 2 CaCl2, and 1.5 MgCl2 (osmolarity 345-350 mOsm/kg, pH 7.4). Using a VT1200S vibratome (Leica, Nussloch, Germany), coronal slices containing the prelimbic and infralimbic cortices (1.9-1.3 mm anterior to bregma) were cut 350 μm or 400 μm thick, for patch clamp and extracellular recordings, respectively, in the same sucrose-containing aCSF. Then, the slices were transferred to a slice holding chamber filled with recording aCSF (osmolarity 300-305 mOsm/kg, pH 7.4) that contained 120 mM NaCl instead of sucrose (Eckhardt et al., 2000) and was continuously gassed with 95% O2/5% CO2.
For endoNF treatment in C57BL/6J mice, slices were first allowed to recover for 20 min at room temperature (22-24° C.) in recording aCSF and were then placed in a 24-well plate to be incubated in 2 ml of aCSF without (sham) or with addition of endoNF (10 μg/ml) at 35° C. for 2 hours. The 24-well plate was installed in a water bath (ED, Julabo, Seelbach, Germany). For field excitatory postsynaptic potential (fEPSP) recordings in knockout and transgenic mice, mPFC slices were incubated in recording aCSF for >2 hours at room temperature before recordings. For patch-clamp recordings in knockout mice, slices were incubated first at 35° C. for 20 min and then at room temperature for >30 min before recordings started. The aCSF was continuously gassed with 95% O2/5% CO2 during all incubation steps and recordings.
For whole-cell patch-clamp recordings, layer V pyramidal neurons were visualized using a SliceScope Pro 6000 equipped with a 40× water-immersion objective and infrared differential interference contrast microscopy (Scientifica, Uckfield, UK). Pyramidal cells were identified by their triangular soma and long apical dendrites, and synaptically evoked excitatory postsynaptic currents (EPSCs) were recorded using patch pipettes (3-5 MQ) fabricated using borosilicate glass capillaries (wall thickness 0.315, length 100, outer diameter 1.5 mm, Hilgenberg) and a DMZ-Zeitz puller (Zeitz Instruments GmbH, Martinsried, Germany). The intracellular pipette solution contained the following (in mM): 140.7 Cs-methane-sulfonate, 5 NaCl, 1 MgCl2, 0.2 EGTA, 10 HEPES, 3 ATP-Mg, 0.3 Na-GTP, and 3.1 QX-314 (osmolarity 295 mOsm/kg, adjusted to pH 7.2 with CsOH). EPSCs were evoked by electrical pulses (0.2 ms) at 0.033 Hz via a glass pipette placed in layer II/III of the mPFC (identically to fEPSPs). Mixed EPSCs showing a fast AMPAR-mediated component and a slow NMDAR-mediated component were recorded at a −60 mV holding potential in whole-cell voltage-clamp mode in normal aCSF. The stimulation intensity was adjusted to evoke mixed EPSCs with amplitudes of approximately 300 pA. The slow NMDAR-mediated component of EPSCs was pharmacologically isolated at −60 mV in modified aCSF containing low Mg^2+ (0.1 mM) and high Ca^2+ (3.2 mM, for adjustment of divalent cation concentrations), the selective antagonist of α-amino-3-hydroxy-5-methyl-4-isoxazolepropionic acid (AMPA)/kainate receptors NBQX (10 μM), and the selective antagonist of γ-aminobutyric acid (GABA)B receptors CGP-55845 (2 μM) (Chen et al., 2003). The washout of Mg^2+ required at least 25 min. Recordings at a holding potential near the resting membrane potential allowed us to obtain stable NMDAR-EPSC recordings from pyramidal cells lasting for 1-1.5 hours. Series resistance (Rs, range 10-25 MΩ) was compensated (20-30%) and monitored continuously. Neurons in which Rs changed by more than 20% throughout the experiment were not included in the analysis. In voltage-clamp mode, membrane potential was not corrected for liquid junction potential. […]

[3] = test system: C57BL/6J mice with intra-mPFC endoNF injection; test: Novel object recognition test before and after intra-mPFC endoNF injection; type: in vivo, mouse; conditions: 30 min before encoding; sarcosine 600 mg/kg i.p. (d2); DP12 (d5) and DP1 (d6) 1 mg/kg intranasally
Procedure: Guide cannulas were fabricated using stainless steel tubing with outer/inner diameter Ø 0.711/0.483 mm (Science Products, Germany). Dummy cannulas were made from entomological pins, size 2, Ø 0.41 mm (FST, Germany). Chronic implantation of cannulas into the mPFC in mice was performed as described previously for intrahippocampal injections (Kochlamazashvili et al., 2012; Senkov et al., 2015; Senkov et al., 2006).
Acute injection of endoNF in vivo was done under a short isoflurane anesthesia. For intra-mPFC injection, we used a digitally controlled infusion system (UltraMicroPump, UMP3, and Micro4 Controller, WPI, USA) fed with a 10 μl-Hamilton syringe and NanoFil 135 μm (35 GA) beveled needle. The thin (135 μm) part of the needle went into the mouse brain during injection, whereas its thick part (430 μm) fit perfectly in the guide cannula (inside 483 μm). Injections were performed as follows: 1) a mouse was anesthetized with 1-3% isoflurane as during implantation; 2) it was put into the stereotaxic frame; 3) the dummy cannula was gently removed from the left guide cannula; 4) a NanoFil injecting needle was carefully placed inside of the guide cannula and advanced further down until reaching the marker (made with a permanent pen at the needle shank (430 μm) to visualize the point when the needle should reach the surface of the brain coming out of the guide cannula (equal to the length of guide cannula); 5) once the marker was reached, a slow (10 μm increment) step dial was used to deepen the needle into the brain; 6) endoNF (2 μg/μl) or vehicle was injected with the following settings: 250 nl per site as deep as 1.5 and 2.25 mm from the brain surface (total injection volume per hemisphere 500 nl, injection rate of 3 nl/s); 7) after injection was complete (˜5 min), the needle was left in the injection site for another 5 min and then gently removed; 8) the dummy cannula was then put back to its place; 9) the same procedure was performed for the right hemisphere. The whole injection process took approximately 20-25 min under isoflurane anesthesia, and the mice recovered rather quickly, starting to move in approximately 2-3 min after being returned to their home cages. Complete recovery of a mouse after such short anesthesia usually occurs within 3-5 min. After injection, mice were returned to their animal facility. Behavior experiments started on the day after injection at approximately the same time, so that we could perform cognitive tests 24 hours after injection.
A white open field arena (50×50×30 cm) was used in the novel object recognition task. All behavior was video recorded and analyzed automatically by software (ANY-maze, version 4.99, Stoelting Co., Wood Dale, Ill.). […]

NMDAR-mediated currents = conditions: cultured hippocampal neurons; cited from earlier work

| Molecule | exploration of least recent versus most recent object in the retrieval phase (5×FAD mice) | object discrimination (discrimination ratio) compared to vehicle (5×FAD mice) | effect on neural cell viability [1] | effect on the amplitude of NMDAR-EPSCs [2] | novel object recognition after intra-mPFC endoNF injection [3] | inhibition of NMDAR-mediated currents (NMDAR-mediated currents) |
| --- | --- | --- | --- | --- | --- | --- |
| (α(2→8)Neu5Ac)10 [DP10] | preference for the least recently explored object | significantly better in object discrimination | strong potentiating effect | – | – | – |
| CC(=O)N[C@H]1[C@H]([C@H](O)[C@H](O)CO)OC(O)(C(=O)O)C[C@@H]1O (stereo partly drawn) [DP1, N-acetylneuraminic acid] | – | – | – | no effect | no effect | do not inhibit |
